Some test systems named below: BT-549 breast; COLO 205 colon; HCC-2998 colon; HL-60(TB) leukemia; HS 578T breast; MCF7 breast; MDA-MB-231 breast; SF-295 CNS; SK-OV-3 ovarian; UACC-257 melanoma.
What all share (experiment): DTP human tumour cell line panel, 48 h

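In this assay, cells in 96-well plates receive the compound at five concentrations for 48 hours. Endpoints are linearly interpolated between the surrounding concentrations. Here, GI50 denotes the concentration required for 50% inhibition of growth. At the TGI there is no net growth.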

One may read the GI50 as the concentration giving 50% growth inhibition. Broadly, the TGI is the concentration giving total growth inhibition. A lower TGI goes with more potent growth arrest.

Regarding `COc1cc(OC)cc(N(CCNC(C)C)c2ccc3ncc(-c4cnn(C)c4)nc3c2)c1`, the GI50 was 2.78 µM in the assay on BT-549 breast; 4.64 µM with COLO 205 colon; 11.2 µM with HCC-2998 colon; 7.37 µM in the assay on HL-60(TB) leukemia; 1.49 µM in the assay on HS 578T breast; 10.5 µM in the assay on MCF7 breast. Further, the GI50 is 4.63 µM with MDA-MB-231 breast, 10.8 µM in the assay with SF-295 CNS, 1.99 µM with SK-OV-3 ovarian and 9.49 µM in the assay with UACC-257 melanoma. In addition, the TGI with BT-549 breast is 17.9 µM; with COLO 205 colon, 18.5 µM; in the assay with HCC-2998 colon, 24.9 µM; in the assay with HL-60(TB) leukemia it was 22.7 µM; in the assay with HS 578T breast it was 6.19 µM; in the assay with MCF7 breast, 24.3 µM. Moreover, the TGI was 18.4 µM with MDA-MB-231 breast, 25.1 µM in the assay on SF-295 CNS, 6 µM in the assay with SK-OV-3 ovarian and 23.4 µM in the assay with UACC-257 melanoma.
As for `C=C(c1ccc2nc(NC(=O)OC)[nH]c2c1)c1cccs1`, the TGI in the assay on BT-549 breast was greater than 100 µM; with COLO 205 colon it was greater than 100 µM; in the assay on HCC-2998 colon it was 0.86 µM; with HL-60(TB) leukemia, greater than 32.7 µM; in the assay on HS 578T breast, greater than 100 µM; in the assay with MCF7 breast, greater than 100 µM. In addition, the TGI with MDA-MB-231 breast was greater than 100 µM; in the assay on SF-295 CNS, 0.934 µM; with SK-OV-3 ovarian it was greater than 45.1 µM; in the assay on UACC-257 melanoma it was greater than 100 µM.
`COc1ccc2c(c1)C(=O)c1c-2n(CCCN=[N+]=[N-])c(=O)c2cc(OC)c(OC)cc12`: the GI50 with BT-549 breast is greater than 100 µM; with COLO 205 colon it was greater than 100 µM; in the assay on HCC-2998 colon, 13.7 µM; with HL-60(TB) leukemia it was 13 µM; in the assay with HS 578T breast it was 70 µM; in the assay with MCF7 breast, 81.4 µM. The GI50 is greater than 100 µM with MDA-MB-231 breast, 18 µM in the assay with SF-295 CNS, 41.6 µM in the assay with SK-OV-3 ovarian and greater than 100 µM with UACC-257 melanoma. Besides, the TGI is greater than 100 µM in the assay on BT-549 breast; greater than 100 µM in the assay on COLO 205 colon; greater than 100 µM in the assay with HCC-2998 colon; 25.7 µM in the assay on HL-60(TB) leukemia; greater than 100 µM in the assay on HS 578T breast; greater than 100 µM with MCF7 breast. Also, the concentration for total growth inhibition (TGI) with MDA-MB-231 breast, with SF-295 CNS, with SK-OV-3 ovarian and in the assay with UACC-257 melanoma was greater than 100 µM each time.
On to `CCCC(=O)NC1=C(Cl)C(=O)c2ccccc2C1=O`, for which the total growth inhibition concentration (TGI) with BT-549 breast is 16.7 µM; in the assay on COLO 205 colon, 3.83 µM; with HCC-2998 colon, 16.3 µM; in the assay on HL-60(TB) leukemia it was 0.899 µM; with HS 578T breast, greater than 39.9 µM; with MCF7 breast, 7.39 µM. The concentration for total growth inhibition (TGI) in the assay with MDA-MB-231 breast came to 17.4 µM; with SF-295 CNS, 17.1 µM; in the assay with SK-OV-3 ovarian, 27.1 µM; in the assay with UACC-257 melanoma, 14 µM.
As to `S=C(Nc1ccc(Br)cc1)Nc1ccc(Br)cc1`, the GI50 is 44.2 µM in the assay on BT-549 breast; 7.82 µM with COLO 205 colon; 5.04 µM in the assay on HCC-2998 colon; 5.79 µM in the assay with HL-60(TB) leukemia; 85 µM in the assay with HS 578T breast; 3.87 µM with MCF7 breast. The GI50 with MDA-MB-231 breast was 25.5 µM; in the assay with SF-295 CNS it was 2.99 µM; with SK-OV-3 ovarian, greater than 100 µM; in the assay on UACC-257 melanoma it was 7.86 µM. In addition, the TGI in the assay with BT-549 breast, in the assay on COLO 205 colon, in the assay with HCC-2998 colon, in the assay with HL-60(TB) leukemia, with HS 578T breast and with MCF7 breast was greater than 100 µM throughout. Moreover, the total growth inhibition concentration (TGI) in the assay on MDA-MB-231 breast, with SF-295 CNS, in the assay on SK-OV-3 ovarian and with UACC-257 melanoma was greater than 100 µM each time.
On to `Cn1cc(C2=C(c3cn(CCCCN)c4ccccc34)C(=O)NC2=O)c2ccccc21`, for which the GI50 with BT-549 breast, with COLO 205 colon, with HCC-2998 colon, in the assay on HL-60(TB) leukemia, in the assay on HS 578T breast and in the assay with MCF7 breast was greater than 25 µM each time. Moreover, the GI50 with MDA-MB-231 breast, in the assay on SK-OV-3 ovarian and with UACC-257 melanoma was greater than 25 µM in each case. Moreover, the concentration for total growth inhibition (TGI) in the assay with BT-549 breast, with COLO 205 colon, in the assay on HCC-2998 colon, in the assay with HL-60(TB) leukemia, in the assay with HS 578T breast and in the assay with MCF7 breast was greater than 25 µM in each case. The concentration for total growth inhibition (TGI) with MDA-MB-231 breast, in the assay with SF-295 CNS, in the assay with SK-OV-3 ovarian and in the assay on UACC-257 melanoma was greater than 25 µM each time.
On to `Oc1[nH]c2ccccc2c1N=Nc1ccccn1`, for which the TGI is greater than 100 µM with BT-549 breast; greater than 100 µM in the assay on COLO 205 colon; 82.8 µM in the assay with HCC-2998 colon; 86.5 µM in the assay with HL-60(TB) leukemia; greater than 100 µM in the assay on HS 578T breast; greater than 100 µM in the assay with MCF7 breast. Moreover, the TGI in the assay on MDA-MB-231 breast was 38.1 µM; with SF-295 CNS, greater than 100 µM; in the assay with SK-OV-3 ovarian, 38.1 µM; in the assay with UACC-257 melanoma, greater than 100 µM.
Regarding `COC(=O)CCc1c[nH]c2ccc(N(CCCl)CCCl)cc12`, the GI50 in the assay with BT-549 breast was 8.52 µM; in the assay on COLO 205 colon it was 3.5 µM; in the assay on HCC-2998 colon it was 8.33 µM; with HL-60(TB) leukemia it was 0.429 µM; in the assay on HS 578T breast, 15.1 µM; in the assay on MCF7 breast it was 0.572 µM. Moreover, the GI50 was 20.1 µM in the assay on MDA-MB-231 breast, 0.826 µM in the assay with SF-295 CNS, 1.93 µM in the assay with SK-OV-3 ovarian and 5.21 µM in the assay with UACC-257 melanoma. Moreover, the TGI with BT-549 breast is 41.5 µM; with COLO 205 colon it was 19.4 µM; in the assay on HCC-2998 colon, 27.1 µM; in the assay with HL-60(TB) leukemia it was greater than 100 µM; with HS 578T breast, 50.1 µM; with MCF7 breast, 22.9 µM. For the same molecule, the TGI in the assay on MDA-MB-231 breast is greater than 92.4 µM; in the assay on SF-295 CNS, greater than 58.8 µM; in the assay with SK-OV-3 ovarian, 33.5 µM; with UACC-257 melanoma it was 34.3 µM.
As to `C=C1C(=O)O[C@H]2C[C@@H]1CC/C(C)=C/CC/C(C)=C/CC[C@H]2C`, the GI50 in the assay with BT-549 breast is 17.1 µM; with COLO 205 colon, 30.1 µM; with HCC-2998 colon it was 14.5 µM; in the assay on HL-60(TB) leukemia, 7.14 µM; with HS 578T breast, 27.3 µM; in the assay with MCF7 breast, 14.7 µM. In addition, the GI50 in the assay with MDA-MB-231 breast was 18.9 µM; in the assay on SF-295 CNS, 13.4 µM; in the assay on SK-OV-3 ovarian, 19.2 µM; with UACC-257 melanoma, 11.5 µM. Also, the total growth inhibition concentration (TGI) in the assay with BT-549 breast was 41.5 µM; in the assay with COLO 205 colon it was greater than 83.7 µM; with HCC-2998 colon it was 28.9 µM; in the assay with HL-60(TB) leukemia, 16.2 µM; in the assay on HS 578T breast, greater than 78 µM; with MCF7 breast it was 56.7 µM. The TGI amounted to 38.9 µM in the assay with MDA-MB-231 breast, 32.7 µM with SF-295 CNS, 38.9 µM with SK-OV-3 ovarian and 29.4 µM in the assay with UACC-257 melanoma.

The record behind these values is PubChem BioAssay (NCI).
